Article PMC10518717, “High-Throughput Screening and Proteomic Characterization of Compounds Targeting Myeloid-Derived Suppressor Cells” (Molecular & Cellular Proteomics : MCP, 2023)

Experiments:
[1] = target: T1, Acyp1 (Mus musculus, UniProt P56376); test: Solvent-induced protein precipitation profiling; assay type: binding; details: 7.8 μM and 26 μM; relative to compound 3 at 10 μM
T1 construct: We treated NUP-MDSC cell lysate with compound 2; endogenous in cells; host or cells: mouse NUP-MDSC (lysate)
T1 sequence (P56376 1-99): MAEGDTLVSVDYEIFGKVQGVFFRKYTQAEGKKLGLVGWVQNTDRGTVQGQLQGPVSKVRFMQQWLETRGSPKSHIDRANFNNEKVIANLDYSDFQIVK
Description: (§1) NUP-MDSCs were differentiated as described above, washed twice with PBS, resuspended in lysis buffer (PBS, 0.4% IGEPAL CA-630, 1× Halt Protease-Inhibitor Cocktail (Thermo Fisher Scientific)), and subjected to three freeze-thaw cycles. The lysate was cleared by centrifugation for 30 min at 18,000g and 4 °C. The soluble fraction was diluted to 4 mg/ml and allowed to warm up to room temperature. Equal volumes of lysate were treated in triplicates with 100 x compound stock solutions (in DMSO) or DMSO for 15 min at room temperature (final concentrations: cmpd 2: 7.8 μM (3xEC50) and 26 μM (10xEC50), cmpd 3: 10 μM and 26 μM). […]
(§2) Peptides were analyzed via LC-MS/MS on a Vanquish Neo UHPLC coupled to an Orbitrap Eclipse Tribrid mass spectrometer (Thermo Fisher Scientific). […] Samples were measured, employing a MS3 method with real-time search. […] To obtain quantitative information on TMT reporter ions, each peptide precursor was fragmented again as for MS2 analysis followed by synchronous selection of the up to 10 most intense peptide fragments in the iontrap ([37]) and further fragmentation via HCD using an NCE of 55%. […] The MS3 scan was recorded in the OT at 30,000 resolution (scan range 110–500 m/z, isolation window of 0.7 m/z, AGC of 2e4 charges, maxIT of 120 ms). […]

[2] = target: T2, Cd74 (Mus musculus, UniProt P04441); test: Solvent-induced protein precipitation profiling; assay type: binding; details: 7.8 μM and 26 μM; relative to compound 3 at 10 μM
T2 construct: We treated NUP-MDSC cell lysate with compound 2; endogenous in cells; host or cells: mouse NUP-MDSC (lysate)
T2 sequence (P04441 1-279): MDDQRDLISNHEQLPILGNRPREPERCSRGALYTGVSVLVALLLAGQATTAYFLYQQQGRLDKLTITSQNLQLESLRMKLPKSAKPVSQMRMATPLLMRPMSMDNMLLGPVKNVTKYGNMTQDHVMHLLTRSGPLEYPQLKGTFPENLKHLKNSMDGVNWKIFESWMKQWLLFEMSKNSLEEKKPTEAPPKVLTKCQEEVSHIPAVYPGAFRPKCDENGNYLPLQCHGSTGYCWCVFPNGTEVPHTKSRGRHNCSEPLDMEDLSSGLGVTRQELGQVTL
Description: as §1, §2

CCOC(=O)c1nnn(-c2nn3nnnc3c3ccccc23)c1C [compound 2]
stabilization against solvent-induced aggregation of Acyp1 [1]: dose-dependent stabilization
stabilization against solvent-induced aggregation of Cd74 [2]: dose-dependent stabilization
